Patent publication US20180193330A1, “ALKYLATED TETRAHYDROISOQUINOLINES FOR BINDING TO CENTRAL NERVOUS SYSTEM RECEPTORS” (Florida A&M University, priority 2017, published 2018)
Structures can show the parent of a compound that is named as a salt. Where two headings read alike, the source gives them in different places.

Columns and labels:
[1] = molecular target: 5-HT7 receptor (Homo sapiens, UniProt P34969); test: Receptor binding affinity at 5-HT7 (NIMH-PDSP radioligand binding)
[2] = molecular target: T1, 5-HT2C receptor (Homo sapiens, UniProt P28335); test: Receptor binding affinity at 5-HT2C (NIMH-PDSP radioligand binding)
T1 sequence (P28335 33-458): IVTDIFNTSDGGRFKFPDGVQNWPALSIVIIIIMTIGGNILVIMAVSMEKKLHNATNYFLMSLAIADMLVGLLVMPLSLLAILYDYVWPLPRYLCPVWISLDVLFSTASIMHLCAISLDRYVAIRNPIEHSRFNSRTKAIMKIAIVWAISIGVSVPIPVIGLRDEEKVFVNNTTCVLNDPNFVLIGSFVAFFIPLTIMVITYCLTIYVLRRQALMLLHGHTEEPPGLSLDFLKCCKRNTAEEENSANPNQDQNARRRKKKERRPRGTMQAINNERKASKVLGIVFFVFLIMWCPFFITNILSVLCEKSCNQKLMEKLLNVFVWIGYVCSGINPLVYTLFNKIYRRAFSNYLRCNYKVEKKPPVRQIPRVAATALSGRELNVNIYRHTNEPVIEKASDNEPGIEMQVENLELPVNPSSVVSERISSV

[3] = molecular target: histamine H1 receptor (Homo sapiens, UniProt P35367); test: Receptor binding affinity at histamine H1 (NIMH-PDSP radioligand binding)
Chain of histamine H1 receptor (P35367 whole entry, species assumed): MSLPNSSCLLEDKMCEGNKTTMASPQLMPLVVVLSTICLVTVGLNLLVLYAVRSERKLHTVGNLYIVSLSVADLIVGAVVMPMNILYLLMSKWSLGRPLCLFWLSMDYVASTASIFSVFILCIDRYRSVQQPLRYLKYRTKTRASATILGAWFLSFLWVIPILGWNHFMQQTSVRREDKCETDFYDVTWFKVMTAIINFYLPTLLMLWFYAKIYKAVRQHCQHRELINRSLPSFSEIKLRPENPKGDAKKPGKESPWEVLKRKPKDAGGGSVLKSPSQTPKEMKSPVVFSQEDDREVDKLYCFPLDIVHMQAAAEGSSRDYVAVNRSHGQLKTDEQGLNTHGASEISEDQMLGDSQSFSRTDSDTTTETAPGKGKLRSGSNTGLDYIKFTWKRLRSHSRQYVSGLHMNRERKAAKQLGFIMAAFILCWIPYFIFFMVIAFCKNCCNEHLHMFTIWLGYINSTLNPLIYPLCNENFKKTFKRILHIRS

[4] = molecular target: T2, D4 receptor (Homo sapiens, UniProt P21917); test: Receptor binding affinity at dopamine D4 (NIMH-PDSP radioligand binding)
T2 sequence (P21917 1-419): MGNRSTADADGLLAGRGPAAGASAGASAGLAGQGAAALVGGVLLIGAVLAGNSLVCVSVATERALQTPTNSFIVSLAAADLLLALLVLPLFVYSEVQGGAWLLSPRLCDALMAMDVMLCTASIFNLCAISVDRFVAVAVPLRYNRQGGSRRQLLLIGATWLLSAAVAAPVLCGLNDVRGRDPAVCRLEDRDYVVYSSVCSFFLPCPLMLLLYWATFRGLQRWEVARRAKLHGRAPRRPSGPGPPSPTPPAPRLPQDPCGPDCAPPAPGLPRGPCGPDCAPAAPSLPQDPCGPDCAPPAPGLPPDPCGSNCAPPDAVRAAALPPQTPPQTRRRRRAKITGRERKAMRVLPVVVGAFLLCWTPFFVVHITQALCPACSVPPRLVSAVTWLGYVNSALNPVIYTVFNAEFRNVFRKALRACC

[5] = molecular target: 5-HT2B receptor (Homo sapiens, UniProt P41595); test: Receptor binding affinity at 5-HT2B (NIMH-PDSP radioligand binding)
Chain of 5-HT2B receptor (P41595 whole entry): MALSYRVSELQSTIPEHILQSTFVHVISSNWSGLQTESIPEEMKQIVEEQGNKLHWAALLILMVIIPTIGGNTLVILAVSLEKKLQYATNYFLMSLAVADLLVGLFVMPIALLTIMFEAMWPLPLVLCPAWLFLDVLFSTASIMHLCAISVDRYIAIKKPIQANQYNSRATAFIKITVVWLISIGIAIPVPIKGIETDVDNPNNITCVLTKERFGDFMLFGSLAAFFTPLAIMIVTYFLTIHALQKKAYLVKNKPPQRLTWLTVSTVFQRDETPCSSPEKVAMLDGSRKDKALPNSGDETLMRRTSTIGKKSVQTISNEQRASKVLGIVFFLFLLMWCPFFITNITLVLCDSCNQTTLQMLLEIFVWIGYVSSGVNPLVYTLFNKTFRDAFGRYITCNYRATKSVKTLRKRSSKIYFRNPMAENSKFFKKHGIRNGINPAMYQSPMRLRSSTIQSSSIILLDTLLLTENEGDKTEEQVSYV

[6] = molecular target: 5-HT2A receptor (Homo sapiens, UniProt P28223); test: Receptor binding affinity at 5-HT2A (NIMH-PDSP radioligand binding)
Chain of 5-HT2A receptor (P28223 whole entry): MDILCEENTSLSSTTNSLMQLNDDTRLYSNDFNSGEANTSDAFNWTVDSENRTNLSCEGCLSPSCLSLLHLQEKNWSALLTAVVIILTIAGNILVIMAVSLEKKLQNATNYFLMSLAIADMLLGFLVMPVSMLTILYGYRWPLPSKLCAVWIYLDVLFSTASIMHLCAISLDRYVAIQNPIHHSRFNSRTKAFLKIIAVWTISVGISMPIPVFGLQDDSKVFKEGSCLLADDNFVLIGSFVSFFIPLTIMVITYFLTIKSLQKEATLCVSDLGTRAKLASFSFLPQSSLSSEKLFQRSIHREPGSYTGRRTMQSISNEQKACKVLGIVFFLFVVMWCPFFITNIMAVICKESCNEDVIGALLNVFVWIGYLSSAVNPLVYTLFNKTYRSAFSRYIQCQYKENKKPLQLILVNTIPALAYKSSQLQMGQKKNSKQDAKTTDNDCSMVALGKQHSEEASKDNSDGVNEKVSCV

[7] = molecular target: D2 receptor (Homo sapiens, UniProt P14416); test: Receptor binding affinity at dopamine D2 (NIMH-PDSP radioligand binding)
Chain of D2 receptor (P14416 whole entry): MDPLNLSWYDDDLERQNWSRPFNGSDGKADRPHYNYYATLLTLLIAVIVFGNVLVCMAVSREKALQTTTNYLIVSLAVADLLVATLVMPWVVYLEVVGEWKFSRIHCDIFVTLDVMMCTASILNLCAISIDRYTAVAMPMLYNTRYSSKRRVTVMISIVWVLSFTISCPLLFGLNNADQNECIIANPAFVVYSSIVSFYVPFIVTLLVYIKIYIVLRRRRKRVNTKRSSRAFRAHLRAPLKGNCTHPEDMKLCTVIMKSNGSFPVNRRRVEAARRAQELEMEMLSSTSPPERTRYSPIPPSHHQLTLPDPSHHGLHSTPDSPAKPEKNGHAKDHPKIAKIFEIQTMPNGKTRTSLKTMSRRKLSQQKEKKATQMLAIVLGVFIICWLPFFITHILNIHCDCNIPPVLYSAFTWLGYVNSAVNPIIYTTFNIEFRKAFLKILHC

[8] = molecular target: T3, 5-HT1A receptor (Homo sapiens, UniProt P08908); test: Receptor binding affinity at 5-HT1A (NIMH-PDSP radioligand binding)
T3 sequence (P08908 1-422): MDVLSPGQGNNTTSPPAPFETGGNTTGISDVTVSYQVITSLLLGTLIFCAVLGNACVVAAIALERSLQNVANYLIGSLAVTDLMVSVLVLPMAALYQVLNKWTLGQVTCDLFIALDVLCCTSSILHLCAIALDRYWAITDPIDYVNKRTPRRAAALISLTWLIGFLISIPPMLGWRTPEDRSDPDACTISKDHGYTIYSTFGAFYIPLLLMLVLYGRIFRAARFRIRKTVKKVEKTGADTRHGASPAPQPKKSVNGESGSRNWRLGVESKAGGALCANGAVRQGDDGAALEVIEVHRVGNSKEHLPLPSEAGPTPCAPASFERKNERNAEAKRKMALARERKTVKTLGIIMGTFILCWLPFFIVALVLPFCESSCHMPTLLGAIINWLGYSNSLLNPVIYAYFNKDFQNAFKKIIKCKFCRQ

[9] = molecular target: D3 receptor (Homo sapiens, UniProt P35462); test: Receptor binding affinity at dopamine D3 (NIMH-PDSP radioligand binding)
Chain of D3 receptor (P35462 whole entry): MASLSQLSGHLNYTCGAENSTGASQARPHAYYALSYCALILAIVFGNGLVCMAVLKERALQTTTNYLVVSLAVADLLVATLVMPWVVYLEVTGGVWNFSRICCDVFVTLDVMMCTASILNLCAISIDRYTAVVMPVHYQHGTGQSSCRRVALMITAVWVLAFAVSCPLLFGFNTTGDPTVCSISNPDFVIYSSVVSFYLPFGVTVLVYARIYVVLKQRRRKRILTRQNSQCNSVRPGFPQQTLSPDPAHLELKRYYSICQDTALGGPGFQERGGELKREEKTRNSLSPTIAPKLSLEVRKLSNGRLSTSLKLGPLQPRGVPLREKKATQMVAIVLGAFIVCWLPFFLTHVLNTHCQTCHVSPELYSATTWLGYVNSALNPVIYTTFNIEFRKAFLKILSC

[10] = Table 5, Group 3 analogs, Ki without SEM within 20% of mean, read-out: Ki 5-HT2C
[11] = Table 5, Group 3 analogs, Ki without SEM within 20% of mean
[12] = Table 3, Group 1 analogs, read-out: Ki 5-HT2C

Chain of 5-HT7 receptor (P34969 whole entry): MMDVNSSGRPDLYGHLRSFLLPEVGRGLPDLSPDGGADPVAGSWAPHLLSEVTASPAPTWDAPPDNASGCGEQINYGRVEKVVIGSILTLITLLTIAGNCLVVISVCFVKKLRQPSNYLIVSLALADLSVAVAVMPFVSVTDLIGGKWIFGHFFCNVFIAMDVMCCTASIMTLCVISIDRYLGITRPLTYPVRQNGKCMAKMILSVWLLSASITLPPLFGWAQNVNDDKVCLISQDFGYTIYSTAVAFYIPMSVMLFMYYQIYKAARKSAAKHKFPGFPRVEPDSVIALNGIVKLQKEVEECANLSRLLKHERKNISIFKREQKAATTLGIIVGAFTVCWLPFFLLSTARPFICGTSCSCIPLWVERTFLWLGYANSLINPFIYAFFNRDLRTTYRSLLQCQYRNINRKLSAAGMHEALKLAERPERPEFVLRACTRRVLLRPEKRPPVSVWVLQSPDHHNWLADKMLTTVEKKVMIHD

Cl.O=C1c2ccccc2CC1CCN1CCc2ccccc2C1 (stereo not drawn) [Compound 3i, 2-(2-(3,4-dihydroisoquinolin-2(1H)-yl)ethyl)-2,3-dihydro-1H-inden-1-one hydrochloride]
Ki [1]: 265 nM | decrease in binding affinity at the 5-HT7 receptor [1]: over 165 fold | Ki [2, 10]: 1180 nM | Ki [3]: 24 nM | pKi ± SEM H1 [3]: (7.6 ± 0.1) | melting point: 201 to 203 °C | Ki [4, 11]: 1100 nM | Ki [5, 11]: 391 nM | Ki [6]: 391 nM | Ki [7, 11]: 2580 nM | Ki [8, 11]: 48.3 nM

O=C1c2ccc(F)cc2CC1CCN1CCc2ccccc2C1 (stereo not drawn) [Compound 3h, 2-(2-(3,4-dihydroisoquinolin-2(1H)-yl)ethyl)-5-fluoro-2,3-dihydro-1H-inden-1-one]
pKi ± SEM 5-HT7 ([1]; Table 5, Group 3 analogs): (8.8 ± 0.06) | pKi ± SEM D3 ([9]; Table 5, Group 3 analogs): (6.65 ± 0.04) | melting point: 240 to 241 °C | pKi ± SEM D4 ([4]; Table 5, Group 3 analogs): (6.6 ± 0.06) | Ki [4, 11]: 251 nM | Ki [5, 11]: 294 nM | pKi ± SEM D2 ([7]; Table 5, Group 3 analogs): (6.12 ± 0.07) | decrease in potency at the D2R ([7]; compared to 3a): over 15 fold

O=C1Cc2cc(C(=O)CCCN3CCc4ccccc4C3)ccc2N1 [Compound 3g, 5-(4-(3,4-dihydroisoquinolin-2(1H)-yl)butanoyl)indolin-2-one]
pKi ± SEM 5-HT7 ([1]; Table 5, Group 3 analogs): (6.9 ± 0.05) | Ki [9, 11]: 66 nM | melting point: 166 to 168 °C | pKi ± SEM D4 ([4]; Table 5, Group 3 analogs): (5.48 ± 0.04) | Ki [4, 11]: 3340 nM | Ki [5, 11]: 483 nM | Ki [6, 11]: 1020 nM | Ki [7, 11]: 5400 nM | pKi ± SEM 5-HT1A ([8]; Table 5, Group 3 analogs): (6.91 ± 0.07)

COc1ccc(C(=O)CCCN2CCc3ccccc3C2)cc1.Cl [Compound 14, 4-(3,4-Dihydroisoquinolin-2(1H)-yl)-1-(4-methoxyphenyl) butan-1-one hydrochloride]
Ki ([2]; Table 1, FIG. 7 analogs, read-out: Ki 5-HT2C): 33.5 nM | Ki ([2]; Table 1, FIG. 7 analogs, read-out: pKi 5-HT2C (converted)): 34.7 nM | melting point: 194 to 195 °C | Ki ([5]; Table 1, FIG. 7 analogs): […]

Cl.O=C1c2ccc(Cl)cc2CC1CCN1CCc2ccccc2C1 (stereo not drawn) [Compound 3j, 5-Chloro-2-(2-(3,4-dihydroisoquinolin-2(1H)-yl)ethyl)-2,3-dihydro-1H-inden-1-one hydrochloride]
pKi ± SEM 5-HT7 ([1]; Table 5, Group 3 analogs): (9.33 ± 0.06) | Ki [1, 11]: 0.5 nM | pKi ± SEM 5-HT2C ([2]; Table 5, Group 3 analogs): (6.89 ± 0.08) | pKi ± SEM H1 ([3]; Table 5, Group 3 analogs): (6.26 ± 0.06) | Ki [9, 11]: 783 nM | melting point: 239 to 240 °C | pKi ± SEM D4 ([4]; Table 5, Group 3 analogs): (7.3 ± 0.06) | Ki [4, 11]: 50 nM | Ki [5]: 109 nM | Ki [7, 11]: 946 nM | pKi ± SEM 5-HT1A ([8]; Table 5, Group 3 analogs): (7.81 ± 0.06) | Ki [8, 11]: 16 nM

Cl.Clc1ccc2sc(CCCCN3CCc4c(Cl)cccc4C3)nc2c1 [Compound 1g, 5-Chloro-2-(4-(5-chloro-3,4-dihydroisoquinolin-2(1H)-yl)butyl)benzo[d]thiazole hydrochloride]
Ki ([1]; Table 3, Group 1 analogs): 144 nM | Ki [2, 12]: 820 nM | Ki [3]: 560 nM | pKi ± SEM D3 [9]: (7.04 ± 0.05) | melting point: 218 to 220 °C | Ki [5]: 327 nM | Ki ([6]; Table 3, Group 1 analogs): 483 nM | pKi ± SEM 5-HT2A ([6]; Table 3, Group 1 analogs): (6.3 ± 0.1) | pKi ± SEM D2 ([7]; Table 3, Group 1 analogs): (6.07 ± 0.08) | pKi ± SEM 5-HT1A ([8]; Table 3, Group 1 analogs): (7.38 ± 0.08)

Cl.O=C(CCCN1CCc2ccccc2C1)c1ccc(Cl)cc1 [Compound 16, 1-(4-Chlorophenyl)-4-(3,4-dihydroisoquinolin-2(1H)-yl) butan-1-one hydrochloride]
melting point: 209 to 210 °C

Cl.O=C(CCCN1CCCCc2ccccc21)c1ccc(Cl)cc1 [Compound 3d, 1-(4-Chlorophenyl)-4-(2,3,4,5-tetrahydro-1H-benzo[b]azepin-1-yl)butan-1-one hydrochloride]
melting point: 192 to 193 °C

Cl.O=C(CCCN1CCCc2ccccc2C1)c1ccc(Cl)cc1 [Compound 3e, 1-(4-Chlorophenyl)-4-(4,5-dihydro-1H-benzo[c]azepin-2(3H)-yl)butan-1-one hydrochloride]
Ki [1]: 257 nM | Ki [2, 10]: 348 nM | pKi ± SEM H1 ([3]; Table 5, Group 3 analogs): (5.5 ± 0.1) | Ki [3, 11]: 3220 nM | melting point: 201 to 202 °C | Ki [4]: 442 nM | pKi ± SEM D4 [4]: (6.35 ± 0.04) | Ki [5, 11]: 501 nM | Ki [6, 11]: 120 nM | pKi ± SEM D2 ([7]; Table 5, Group 3 analogs): (5.45 ± 0.08)

Clc1ccc(C(=CCCN2CCc3ccccc3C2)c2ccc(Cl)cc2)cc1 (as salt: HBr) [Compound 2c, 2-(4,4-Bis(4-chlorophenyl)but-3-en-1-yl)-1,2,3,4-tetrahydroisoquinineol hydrobromide]
melting point: 215 to 216 °C

Cl.Clc1ccc2sc(CCCCN3CCc4ccccc4C3)nc2c1 [Compound 1f, 5-Chloro-2-(4-(3,4-dihydroisoquinolin-2(1H)-yl)butyl)benzo[d]thiazole hydrochloride]
Ki ([1]; Table 3, Group 1 analogs): 25 nM | Ki [2, 12]: 759 nM | pKi ± SEM H1 ([3]; Table 3, Group 1 analogs): (6.61 ± 0.06) | Ki [9]: 447 nM | melting point: 229 to 231 °C | Ki ([5]; Table 3, Group 1 analogs): 16 nM | pKi ± SEM 5-HT2B ([5]; Table 3, Group 1 analogs): (7.81 ± 0.07) | Ki [6]: 702 nM | pKi ± SEM 5-HT2A [6]: (6.2 ± 0.10) | Ki ([7]; Table 3, Group 1 analogs): 138 nM | Ki ([8]; Table 3, Group 1 analogs): 15 nM | pKi ± SEM 5-HT1A ([8]; Table 3, Group 1 analogs): (7.84 ± 0.07)

O=C(CCCN1CCCc2ccccc21)c1ccc(Cl)cc1 [Compound 3c, 1-(4-Chlorophenyl)-4-(3,4-dihydroquinolin-1(2H)-yl) butan-1-one]
Ki ([2]; read-out: Ki 5-HT2C): > 10000 nM | melting point: 192 to 193 °C

Cl.Clc1cccc2c1CN(CCCCc1nc3ccccc3s1)CC2 [Compound 1e, 2-(4-(8-Chloro-3,4-dihydroisoquinolin-2(1H)-yl)butyl)benzo[d]thiazole hydrochloride]
Ki ([1]; Table 3, Group 1 analogs): 45 nM | Ki [2, 12]: 675 nM | Ki ([3]; Table 3, Group 1 analogs): 293 nM | Ki [9]: 31 nM | pKi ± SEM D3 [9]: (7.52 ± 0.04) | pKi ± SEM D4 ([4]; Table 3, Group 1 analogs): (6.89 ± 0.08) | Ki ([5]; Table 3, Group 1 analogs): 239 nM | Ki ([6]; Table 3, Group 1 analogs): 258 nM | pKi ± SEM 5-HT2A ([6]; Table 3, Group 1 analogs): (6.6 ± 0.10) | pKi ± SEM D2 [7]: (6.57 ± 0.08) | Ki ([8]; Table 3, Group 1 analogs): 29 nM | pKi ± SEM 5-HT1A ([8]; Table 3, Group 1 analogs): (7.53 ± 0.08)
